Assay results: EP4745137A1 (Gluetacs Therapeutics (Shanghai) Co., Ltd., priority 2023, dated 2025)

Key:
WEE1 = target: T1, WEE1 (Homo sapiens, UniProt P30291+Q96SW2); assay: Western-blot assay of substrate protein degradation in hPBMCs, WEE1; format: cell-based; details: 24 hours of compound treatment, compounds tested at 50 nM and 500 nM (concentration of the table not stated)
T1 construct: endogenous in cells; host or cells: hPBMCs (Milecell Biotechnologies)

IKZF1 = target: T2, IKZF1 (Homo sapiens, UniProt Q13422+Q96SW2); assay: Western-blot assay of substrate protein degradation in hPBMCs, IKZF1; format: cell-based; details: 24 hours of compound treatment, compounds tested at 50 nM and 500 nM (concentration of the table not stated)
T2 construct: endogenous in cells; host or cells: hPBMCs (Milecell Biotechnologies)

IKZF2 = target: T3, IKZF2 (Homo sapiens, UniProt Q96SW2+Q9UKS7); assay: Western-blot assay of substrate protein degradation in hPBMCs, IKZF2; format: cell-based; details: 24 hours of compound treatment, compounds tested at 50 nM and 500 nM (concentration of the table not stated)
T3 construct: endogenous in cells; host or cells: hPBMCs (Milecell Biotechnologies)

IKZF3 = target: T4, IKZF3 (Homo sapiens, UniProt Q96SW2+Q9UKT9); assay: Western-blot assay of substrate protein degradation in hPBMCs, IKZF3; format: cell-based; details: 24 hours of compound treatment, compounds tested at 50 nM and 500 nM (concentration of the table not stated)
T4 construct: endogenous in cells; host or cells: hPBMCs (Milecell Biotechnologies)

CK1α = target: T5, CK1α (Homo sapiens, UniProt P48729+Q96SW2); assay: Western-blot assay of substrate protein degradation in hPBMCs, CK1α; format: cell-based; details: 24 hours of compound treatment, compounds tested at 50 nM and 500 nM (concentration of the table not stated)
T5 construct: endogenous in cells; host or cells: hPBMCs (Milecell Biotechnologies)

GSPT1 = target: T6, GSPT1 (Homo sapiens, UniProt P15170+Q96SW2); assay: Western-blot assay of substrate protein degradation in hPBMCs, GSPT1; format: cell-based; details: 24 hours of compound treatment, compounds tested at 50 nM and 500 nM (concentration of the table not stated)
T6 construct: endogenous in cells; host or cells: hPBMCs (Milecell Biotechnologies)

[1] = target: T7, human Cereblon WT GST-tagged protein (Homo sapiens, UniProt Q96SW2); assay: CRBN-binding affinity by HTRF (CEREBLON BINDING kit); details: HTRF inhibitory activity, CEREBLON BINDING kit; read-out: HTRF IC50
T7 construct: purchased CISBIO 64BDCRBNPEH

Vcap = assay: Tumor cell proliferation inhibition (CellTiter-Meiluncell Luminescent Cell Viability Assay), Vcap; details: Homo sapiens, 96 h, read-out: inhibitory activity (IC50, nM) against tumor cells proliferation, Vcap
SW620 = assay: Tumor cell proliferation inhibition (CellTiter-Meiluncell Luminescent Cell Viability Assay), SW620; details: Homo sapiens, SW-620, 96 h, read-out: inhibitory activity (IC50, nM) against tumor cells proliferation, SW620
Jurkat = assay: Tumor cell proliferation inhibition (CellTiter-Meiluncell Luminescent Cell Viability Assay), Jurkat; details: Homo sapiens, 96 h, read-out: inhibitory activity (IC50, nM) against tumor cells proliferation, Jurkat
CAL-62 = assay: Tumor cell proliferation inhibition (CellTiter-Meiluncell Luminescent Cell Viability Assay), CAL-62; details: Homo sapiens, CAL-62, 96 h, read-out: inhibitory activity (IC50, nM) against tumor cells proliferation, CAL-62
CCRF-CEM = assay: Tumor cell proliferation inhibition (CellTiter-Meiluncell Luminescent Cell Viability Assay), CCRF-CEM; details: Homo sapiens, 96 h, read-out: inhibitory activity (IC50, nM) against tumor cells proliferation, CCRF-CEM
TMD8 = assay: Tumor cell proliferation inhibition (CellTiter-Meiluncell Luminescent Cell Viability Assay), TMD8; details: Homo sapiens, TMD8, 96 h, read-out: inhibitory activity (IC50, nM) against tumor cells proliferation, TMD8
Description: The tumor cells used herein were cultured in a cell culture medium listed in table 2 at 37°C in an incubator with 5% CO2. Prior to experimentation, all cell lines used were correctly identified by STR profiling, and tested negative for mycoplasma contamination using a mycoplasma detection kit through routine screenings.
On the following day, the test compounds of the present disclosure were subjected to serial dilution. […] Subsequently, 0.5 µL of the test compound dilution was transferred into the 96-well plate containing the cells, with each well containing 100 µL of cell culture medium. […] Into the 96-well plate, the diluted test compounds and corresponding detection reagents were added, resulting in final test compound concentrations of 500 nM and 10 nM, respectively. The experimental procedure is described below using the diluted 2 µM test compound as an example.
After the cells were treated with the compounds of the present disclosure for a specified period (the treatment durations were shown in Table 3), the cell viability assay reagent was added to the culture medium according to the kit's instructions to determine cell viability. […] All controls were treated using the same procedure as the compounds of the present disclosure. The growth inhibition curves for the compounds of the present disclosure were plotted using Prism GraphPad software, and the IC50 values were calculated therefrom.

[2] = system: Human acute T lymphocytic leukemia cells (Molt-4); assay: Tumor cell proliferation inhibition (CellTiter-Meiluncell Luminescent Cell Viability Assay), Molt-4; details: MOLT-4, 96 h, read-out: inhibitory activity (IC50, nM) against tumor cells proliferation, Molt 4
NCI-H1975 = assay: Tumor cell proliferation inhibition (CellTiter-Meiluncell Luminescent Cell Viability Assay), NCI-H1975; details: Homo sapiens, NCI-H1975, 96 h, read-out: inhibitory activity (IC50, nM) against tumor cells proliferation, H1975
[3] = system: Human breast cancer cells (MDA-MB-231); assay: Tumor cell proliferation inhibition (CellTiter-Meiluncell Luminescent Cell Viability Assay), MDA-MB-231; details: MDA-MB-231, 96 h, read-out: inhibitory activity (IC50, nM) against tumor cells proliferation, MDA-MB-231

T2 sequence (Q13422 whole entry): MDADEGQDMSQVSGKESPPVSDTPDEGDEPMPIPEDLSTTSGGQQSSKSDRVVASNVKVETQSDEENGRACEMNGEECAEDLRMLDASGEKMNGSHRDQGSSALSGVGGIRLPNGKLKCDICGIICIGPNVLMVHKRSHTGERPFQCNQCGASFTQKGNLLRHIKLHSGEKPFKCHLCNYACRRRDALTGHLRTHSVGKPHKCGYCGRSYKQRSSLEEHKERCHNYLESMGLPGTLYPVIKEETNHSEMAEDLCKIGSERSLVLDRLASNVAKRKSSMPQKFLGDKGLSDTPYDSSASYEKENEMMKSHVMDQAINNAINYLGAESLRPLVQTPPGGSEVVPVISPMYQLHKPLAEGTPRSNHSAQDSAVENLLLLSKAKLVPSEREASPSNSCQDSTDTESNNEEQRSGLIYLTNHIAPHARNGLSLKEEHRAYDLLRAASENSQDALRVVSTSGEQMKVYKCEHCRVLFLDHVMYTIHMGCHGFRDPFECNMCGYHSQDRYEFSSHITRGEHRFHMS
T2 sequence (Q96SW2 whole entry): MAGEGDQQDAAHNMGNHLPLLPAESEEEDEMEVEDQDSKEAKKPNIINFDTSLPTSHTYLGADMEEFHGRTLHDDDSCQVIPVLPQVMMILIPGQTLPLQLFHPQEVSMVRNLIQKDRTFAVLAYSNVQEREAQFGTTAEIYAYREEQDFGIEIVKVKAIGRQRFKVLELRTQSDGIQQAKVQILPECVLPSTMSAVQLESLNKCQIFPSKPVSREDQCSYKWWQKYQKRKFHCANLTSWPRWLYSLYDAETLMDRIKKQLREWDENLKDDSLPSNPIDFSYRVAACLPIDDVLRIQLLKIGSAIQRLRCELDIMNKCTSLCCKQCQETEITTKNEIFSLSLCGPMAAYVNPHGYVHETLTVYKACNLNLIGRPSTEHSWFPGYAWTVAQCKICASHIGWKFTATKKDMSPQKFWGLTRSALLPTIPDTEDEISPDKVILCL
T2 sequence (Q16531 whole entry partner): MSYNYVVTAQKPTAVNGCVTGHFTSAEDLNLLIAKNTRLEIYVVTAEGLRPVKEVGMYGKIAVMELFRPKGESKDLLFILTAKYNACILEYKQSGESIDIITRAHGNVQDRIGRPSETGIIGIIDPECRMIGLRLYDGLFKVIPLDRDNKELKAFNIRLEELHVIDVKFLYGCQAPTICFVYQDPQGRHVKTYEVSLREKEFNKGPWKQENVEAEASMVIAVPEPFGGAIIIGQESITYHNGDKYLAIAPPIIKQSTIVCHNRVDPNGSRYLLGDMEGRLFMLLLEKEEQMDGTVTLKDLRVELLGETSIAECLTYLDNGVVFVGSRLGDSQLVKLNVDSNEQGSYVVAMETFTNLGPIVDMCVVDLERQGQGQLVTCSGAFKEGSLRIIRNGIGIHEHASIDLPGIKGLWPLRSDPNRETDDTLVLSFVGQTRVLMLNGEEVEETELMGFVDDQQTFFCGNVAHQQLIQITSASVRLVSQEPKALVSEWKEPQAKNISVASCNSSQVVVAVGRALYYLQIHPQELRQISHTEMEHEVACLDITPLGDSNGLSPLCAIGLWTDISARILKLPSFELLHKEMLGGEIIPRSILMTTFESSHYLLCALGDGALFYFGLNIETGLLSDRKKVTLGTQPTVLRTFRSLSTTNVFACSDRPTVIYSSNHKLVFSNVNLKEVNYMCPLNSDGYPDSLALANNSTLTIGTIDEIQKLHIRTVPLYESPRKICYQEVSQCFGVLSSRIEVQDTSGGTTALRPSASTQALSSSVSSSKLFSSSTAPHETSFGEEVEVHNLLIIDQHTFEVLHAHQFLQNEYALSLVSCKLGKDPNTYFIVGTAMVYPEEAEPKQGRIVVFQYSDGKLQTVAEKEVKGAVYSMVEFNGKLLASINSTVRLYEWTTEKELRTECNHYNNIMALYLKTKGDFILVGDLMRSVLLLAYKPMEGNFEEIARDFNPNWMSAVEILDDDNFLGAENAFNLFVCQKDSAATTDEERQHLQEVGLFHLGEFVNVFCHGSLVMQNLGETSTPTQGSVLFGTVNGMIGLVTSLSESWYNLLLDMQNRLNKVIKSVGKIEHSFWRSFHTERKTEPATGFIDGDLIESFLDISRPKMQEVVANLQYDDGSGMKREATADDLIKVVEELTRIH
T7 sequence (Q96SW2 whole entry): as the sequence (Q96SW2 whole entry) above
T3 sequence (Q9UKS7 whole entry): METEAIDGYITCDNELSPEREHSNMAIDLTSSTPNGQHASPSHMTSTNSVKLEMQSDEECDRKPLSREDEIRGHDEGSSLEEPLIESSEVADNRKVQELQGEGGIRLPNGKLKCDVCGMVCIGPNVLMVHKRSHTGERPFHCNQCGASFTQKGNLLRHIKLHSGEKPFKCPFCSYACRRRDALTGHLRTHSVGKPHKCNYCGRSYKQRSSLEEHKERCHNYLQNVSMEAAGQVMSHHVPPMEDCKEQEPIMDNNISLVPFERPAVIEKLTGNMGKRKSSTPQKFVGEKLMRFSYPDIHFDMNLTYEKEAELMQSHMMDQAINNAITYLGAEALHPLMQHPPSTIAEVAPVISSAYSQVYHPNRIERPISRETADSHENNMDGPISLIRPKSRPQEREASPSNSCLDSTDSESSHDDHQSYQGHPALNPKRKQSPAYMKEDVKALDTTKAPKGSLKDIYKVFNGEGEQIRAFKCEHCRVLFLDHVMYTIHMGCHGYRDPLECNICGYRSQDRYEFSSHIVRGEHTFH
T3 sequence (Q96SW2 whole entry): as the sequence (Q96SW2 whole entry) above
T3 sequence (Q16531 whole entry partner): as the sequence (Q16531 whole entry partner) above
T5 sequence (P48729 whole entry): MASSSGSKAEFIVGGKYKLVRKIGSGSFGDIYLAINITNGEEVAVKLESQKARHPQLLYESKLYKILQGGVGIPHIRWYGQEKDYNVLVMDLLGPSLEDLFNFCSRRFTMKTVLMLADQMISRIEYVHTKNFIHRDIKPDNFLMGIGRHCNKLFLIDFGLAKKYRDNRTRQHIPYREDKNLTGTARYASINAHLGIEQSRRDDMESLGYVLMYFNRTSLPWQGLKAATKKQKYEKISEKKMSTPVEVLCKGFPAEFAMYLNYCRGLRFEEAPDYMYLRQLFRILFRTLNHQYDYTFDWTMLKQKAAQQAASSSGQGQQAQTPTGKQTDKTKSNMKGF
T5 sequence (Q96SW2 whole entry): as the sequence (Q96SW2 whole entry) above
T5 sequence (Q16531 whole entry partner): as the sequence (Q16531 whole entry partner) above
T1 sequence (P30291 whole entry): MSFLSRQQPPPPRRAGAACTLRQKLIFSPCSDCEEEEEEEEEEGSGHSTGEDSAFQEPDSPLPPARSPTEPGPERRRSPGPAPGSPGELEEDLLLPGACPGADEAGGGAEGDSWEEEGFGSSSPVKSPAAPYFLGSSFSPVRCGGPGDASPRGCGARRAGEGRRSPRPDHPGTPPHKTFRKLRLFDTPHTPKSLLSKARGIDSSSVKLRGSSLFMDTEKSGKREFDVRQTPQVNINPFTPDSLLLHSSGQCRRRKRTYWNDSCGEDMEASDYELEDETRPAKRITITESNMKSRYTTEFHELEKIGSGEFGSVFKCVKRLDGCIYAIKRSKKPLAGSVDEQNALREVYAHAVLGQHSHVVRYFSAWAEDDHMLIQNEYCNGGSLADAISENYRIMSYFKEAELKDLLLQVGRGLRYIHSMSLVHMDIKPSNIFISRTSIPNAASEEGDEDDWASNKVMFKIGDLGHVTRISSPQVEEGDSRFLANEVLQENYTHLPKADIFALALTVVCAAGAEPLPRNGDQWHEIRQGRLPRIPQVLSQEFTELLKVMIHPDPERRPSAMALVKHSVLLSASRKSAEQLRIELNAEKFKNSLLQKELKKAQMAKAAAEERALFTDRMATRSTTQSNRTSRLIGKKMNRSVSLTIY
T1 sequence (Q96SW2 whole entry): as the sequence (Q96SW2 whole entry) above
T1 sequence (Q16531 whole entry partner): as the sequence (Q16531 whole entry partner) above
T6 sequence (P15170 whole entry): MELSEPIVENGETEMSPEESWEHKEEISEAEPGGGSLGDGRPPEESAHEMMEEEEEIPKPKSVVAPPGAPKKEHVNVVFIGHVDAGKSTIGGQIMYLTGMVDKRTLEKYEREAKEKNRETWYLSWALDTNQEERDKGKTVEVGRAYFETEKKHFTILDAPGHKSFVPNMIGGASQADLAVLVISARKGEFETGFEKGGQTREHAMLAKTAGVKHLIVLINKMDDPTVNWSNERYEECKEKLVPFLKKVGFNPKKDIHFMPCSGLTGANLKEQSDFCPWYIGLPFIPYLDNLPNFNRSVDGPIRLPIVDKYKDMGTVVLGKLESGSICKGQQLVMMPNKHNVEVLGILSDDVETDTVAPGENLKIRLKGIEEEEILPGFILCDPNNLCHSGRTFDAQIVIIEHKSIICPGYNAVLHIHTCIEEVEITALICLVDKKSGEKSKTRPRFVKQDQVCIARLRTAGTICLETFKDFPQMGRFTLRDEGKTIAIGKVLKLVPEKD
T6 sequence (Q96SW2 whole entry): as the sequence (Q96SW2 whole entry) above
T6 sequence (Q16531 whole entry partner): as the sequence (Q16531 whole entry partner) above

| Compound | Weel substrate protein remaining % (WEE1) | IKZF 1 substrate protein remaining % (IKZF1) | IKZF2 substrate protein remaining % (IKZF2) | IKZF3 substrate protein remaining % (IKZF3) | CK1a substrate protein remaining % (CK1α) | GSPT1 substrate protein remaining % (GSPT1) | IC50 [1] [nM] | IC50 (Vcap) [nM] | IC50 (SW620) [nM] | IC50 (Jurkat) [nM] | IC50 (CAL-62) [nM] | IC50 (CCRF-CEM) [nM] | IC50 (TMD8) [nM] | IC50 [2] [nM] | IC50 (NCI-H1975) [nM] | IC50 [3] [nM] |
| --- | --- | --- | --- | --- | --- | --- | --- | --- | --- | --- | --- | --- | --- | --- | --- | --- |
| O=C1CCC(N2Cc3cc(CN4CCN(c5nsc6ccccc56)CC4)ccc3C2=O)C(=O)N1 (centres unmarked) [GT-04255, 3-(5-((4-(benzo[d]isothiazol-3-yl)piperazin-1-yl)methyl)-1-oxoisoindolin-2-yl)piperidine-2,6-dione] | A (0% ≤ substrate protein remaining % ≤ 80%) | A (0% ≤ substrate protein remaining % ≤ 80%) | A (0% ≤ substrate protein remaining % ≤ 80%) | A (0% ≤ substrate protein remaining % ≤ 80%) | A (0% ≤ substrate protein remaining % ≤ 80%) | A (0% ≤ substrate protein remaining % ≤ 80%) | 500 to 1000 | 500 to 1000 | 100 to 500 | 100 to 500 | 50 to 100 | 10 to 50 |  |  |  |  |
| O=C1CCC(N2Cc3cc(CN4CCC(c5c[nH]c6cc(F)ccc56)CC4)ccc3C2=O)C(=O)N1 (centres unmarked) [GT-04713, 3-(5-((4-(6-fluoro-1H-indol-3-yl)piperidin-1-yl)methyl)-1-oxoisoindolin-2-yl)piperidine-2,6-dione] | A (0% ≤ substrate protein remaining % ≤ 80%) | A (0% ≤ substrate protein remaining % ≤ 80%) | A (0% ≤ substrate protein remaining % ≤ 80%) | A (0% ≤ substrate protein remaining % ≤ 80%) | A (0% ≤ substrate protein remaining % ≤ 80%) | A (0% ≤ substrate protein remaining % ≤ 80%) | 500 to 1000 |  |  |  |  |  | 10 to 50 | 1 to 5 | 5 to 10 | 1 to 5 |
| Cc1nc(C2=CCN(Cc3ccc4c(c3)CN(C3CCC(=O)NC3=O)C4=O)CC2)c2ccsc2n1 (centres unmarked) [GT-04718, 3-(5-((4-(2-methylthieno[2,3-d]pyrimidin-4-yl)-3,6-dihydropyridin-1(2H)-yl)methyl)-1-oxoisoindolin-2-yl)piperidine-2,6-dione] | A (0% ≤ substrate protein remaining % ≤ 80%) | A (0% ≤ substrate protein remaining % ≤ 80%) | A (0% ≤ substrate protein remaining % ≤ 80%) | A (0% ≤ substrate protein remaining % ≤ 80%) | B (80%< substrate protein remaining %≤ 100%) | A (0% ≤ substrate protein remaining % ≤ 80%) | 500 to 1000 |  |  |  |  |  | 10 to 50 | 1 to 5 | 10 to 50 | 5 to 10 |
| Cn1cc(C2=CCN(Cc3ccc4c(c3)CN(C3CCC(=O)NC3=O)C4=O)CC2)c2ccc(F)cc21 (centres unmarked) [GT-04723, 3-(5-((4-(6-fluoro-1-methyl-1H-indol-3-yl)-3,6-dihydropyridin-1(2H)-yl)methyl)-1-oxoisoindolin-2-yl)piperidine-2,6-dione] | A (0% ≤ substrate protein remaining % ≤ 80%) | A (0% ≤ substrate protein remaining % ≤ 80%) | A (0% ≤ substrate protein remaining % ≤ 80%) | A (0% ≤ substrate protein remaining % ≤ 80%) | A (0% ≤ substrate protein remaining % ≤ 80%) | A (0% ≤ substrate protein remaining % ≤ 80%) | < 500 |  |  |  |  |  | 10 to 50 | 1 to 5 | 10 to 50 | 5 to 10 |
| O=C1CCC(N2Cc3cc(CN4C[C@H]5C[C@@H]4CN5c4cccc(Cl)c4Cl)ccc3C2=O)C(=O)N1 (stereo partly drawn) [GT-04724, 3-(5-(((1R,4R)-5-(2,3-dichlorophenyl)-2,5-diazabicyclo[2.2.1]heptan-2-yl)methyl)-1-oxoisoindolin-2-yl)piperidine-2,6-dione] | A (0% ≤ substrate protein remaining % ≤ 80%) | A (0% ≤ substrate protein remaining % ≤ 80%) | A (0% ≤ substrate protein remaining % ≤ 80%) | A (0% ≤ substrate protein remaining % ≤ 80%) | A (0% ≤ substrate protein remaining % ≤ 80%) | A (0% ≤ substrate protein remaining % ≤ 80%) | < 500 |  |  |  |  |  | 50 to 100 | 5 to 10 | 50 to 100 | 10 to 50 |
| Cc1ccsc1C1=CCN(Cc2ccc3c(c2F)CN(C2CCC(=O)NC2=O)C3=O)CC1 (centres unmarked) [GT-04729, 3-(4-fluoro-5-((4-(3-methylthiophen-2-yl)-3,6-dihydropyridin-1(2H)-yl)methyl)-1-oxoisoindolin-2-yl)piperidine-2,6-dione] | A (0% ≤ substrate protein remaining % ≤ 80%) | A (0% ≤ substrate protein remaining % ≤ 80%) | A (0% ≤ substrate protein remaining % ≤ 80%) | A (0% ≤ substrate protein remaining % ≤ 80%) | B (80%< substrate protein remaining %≤ 100%) | A (0% ≤ substrate protein remaining % ≤ 80%) | 500 to 1000 |  |  |  |  |  | 10 to 50 | 1 to 5 | 10 to 50 | 1 to 5 |
| Cc1ccsc1C1=CCN(Cc2cc(F)c3c(c2)CN(C2CCC(=O)NC2=O)C3=O)CC1 (centres unmarked) [GT-04730, 3-(7-fluoro-5-((4-(3-methylthiophen-2-yl)-3,6-dihydropyridin-1(2H)-yl)methyl)-1-oxoisoindolin-2-yl)piperidine-2,6-dione] | A (0% ≤ substrate protein remaining % ≤ 80%) | A (0% ≤ substrate protein remaining % ≤ 80%) | A (0% ≤ substrate protein remaining % ≤ 80%) | A (0% ≤ substrate protein remaining % ≤ 80%) | A (0% ≤ substrate protein remaining % ≤ 80%) | A (0% ≤ substrate protein remaining % ≤ 80%) | 500 to 1000 |  |  |  |  |  | 10 to 50 | 1 to 5 | 10 to 50 | 10 to 50 |
| O=C1CCC(N2Cc3c(ccc(CN4CCC(c5noc6cc(F)ccc56)CC4)c3F)C2=O)C(=O)N1 (centres unmarked) [GT-04765, 3-(4-fluoro-5-((4-(6-fluorobenzo[d]isoxazol-3-yl)piperidin-1-yl)methyl)-1-oxoisoindolin-2-yl)piperidine-2,6-dione] | A (0% ≤ substrate protein remaining % ≤ 80%) | A (0% ≤ substrate protein remaining % ≤ 80%) | A (0% ≤ substrate protein remaining % ≤ 80%) | A (0% ≤ substrate protein remaining % ≤ 80%) | A (0% ≤ substrate protein remaining % ≤ 80%) | A (0% ≤ substrate protein remaining % ≤ 80%) | 1000 to 1500 |  |  |  |  |  | 100 to 500 | 5 to 10 | 50 to 100 | 10 to 50 |
